From PMC6235670, “An mTOR Signaling Modulator Suppressed Heterotopic Ossification of Fibrodysplasia Ossificans Progressiva” (Stem Cell Reports, 2018)

Legend:
[1] = tested on: mTOR signaling (p-S6); assay: p-S6 western blotting in FOP-iMSCs cultured with 10% FBS; format: cell-based, human; conditions: 100 nM, 2 hr
Method: time point t = 24 h from t = 0 h, and relative cell migration was expressed as the ratio of the absolute cell migrations between the experimental and control groups by using CL-Quant software (Nikon Corp.).
Quantitative PCR analysis. Total RNA was purified with RNeasy Kit (Qiagen) and treated with DNase -one Kit (Qiagen) to remove genomic DNA. Total RNA (0.3 µg) was reverse transcribed for single-stranded cDNA using random primers and Superscript III reverse transcriptase (Thermo Fisher Scientific) according to the manufacturer’s instructions. Quantitative PCR was performed with Thunderbird SYBR qPCR Mix (TOYOBO) and analyzed with the StepOne real-time PCR system (Applied Biosystems). […]
Microarray experiments. 2D chondrogenic induction was performed in FOP-iMSCs stimulated with or without 100 ng/mL Activin-A, TAK 165, CP-724714 and Lapatinib. […] Raw CEL files were imported into GeneSpring GX 12.6.1 software (Agilent Technologies), and expression values were calculated with the RMA16 algorithm. […]
Protein bands were detected with ECL Prime Western Blotting Detection Reagent (GE Healthcare) and visualized using BIO-RAD Molecular Imager® Chemi-DocTM XRS+ with Image LabTM software (Bio-Rad). […]
GAG value. The GAG content was quantified in pellets with the Blyscan Glycosaminoglycan Assay Kit (Biocolor). The DNA content was quantified using PicoGreen dsDNA Quantitation Kit (Thermo Fisher […]

[2] = tested on: C57BL/6 mice; assay: Growth plate histology and normal bone µCT in compound-administered BMP-7-injected mice; conditions: 5 mg/kg i.p., 2 weeks
Method: (§1) MTOR s604 […]tt […]at […]
System Engineering) according to the manufacturer's instructions. […]
(§2) BMP-7-induced HO model mice. BMP -7 (2 µ g/mouse) was injected into the right gastrocnemius muscle of C57BL/6NJcl mice (6-8 weeks, male, CLEA Japan), and compounds were administered once a day, five times a week (intraperitoneal administration). Mice were analyzed 2 weeks after injection. […]
Histological analysis of growth plates chondrocytes. Knee joints were obtained from BMP-7-injected and test compounds-administrated C57BL/6NJcl mice after 2 weeks treatment and fixed, paraffin-embedded, and sectioned and stained with Safranin O. The thickness of the proliferative and hypertrophic zones of the growth plate were measured using ImageJ software on images obtained using a Keyence microscope (Keyence A merica). The proliferative zone was defined as the region with flat chondrocytes stacked in longitudinal columns, and the hypertrophic zone as the region where chondrocytes are enlarged in size and form clusters.
Normal bone µCT. The left legs of mice were obtained from BMP -7-injected and test -compounds administrated C57BL/6NJcl mice after 2 weeks treatment. The region of interest (ROI) included the femur- tibia (entire femur in addition to the part of tibia above tibia/fibular junction). […]
Tests of side effects of direct and indirect mTOR inhibitors. Related

[3] = tested on: healthy control iPSC (414C2)-derived iMSCs; assay: Wound healing assay; conditions: 10 nM rapamycin or 1 µM TAK165, 24 h
[4] = tested on: ATDC5/FOP-ACVR1 cells; assay: ALP assay (HTS and dose-response) in ATDC5/FOP-ACVR1; format: cell-based, mouse; conditions: Mus musculus, 72 h, read-out: IC50 (ALP assay)
Method: ATDC5/FOP-ACVR1 cells were plated in 96-well white plates (2,000 cells/well/40 μL, Corning) in DMEM/F-12 supplemented with 5% (v/v) FBS. Two hours after incubation at 37°C under 5% CO2, 10 μL of test compounds (final 1 μM) was added, and the assay plates were incubated at 37°C under 5% CO2. After 3 days of incubation, ALP activity was measured using an Amplite Colorimetric Alkaline Phosphatase Assay Kit (AAT Bioquest) according to the manufacturer's protocol.
Generation of ATDC5 stably expressing ACVR1. WT - or FOP-ACVR1 was inserted into doxycycline (Dox)- […]
(KW111/WT-ACVR1 or KW111/FOP-ACVR1). KW111/WT-ACVR1 or KW111/FOP-ACVR1 and PBaseII […]
FuGeneHD® (Promega) according to the manufacturer’s protocol, and the neomycin- resistant population (500 µg/mL) was selected. […]
HTS campaign and follow-up screens. […] After 3 days incubation, Alkaline Phosphatase activity (ALP) or AlamarBlue activity was measured using Amplite™ Colorimetric Alkaline Phosphatase Assay Kit (AAT Bioquest) or alamarBlue® Cell Viability Reagent (Thermo Fisher Scientific) according to the manufacturer’s protocol, respectively. […]
was measured on POWERSCAN4 (DS Pharma Biomedical) or EnVision® Multilabel Reader (PerkinElmer).
Inhibitory effects of the screened compounds are given as percent inhibition, which was calculated using the following equation: (1-([Abs of compound] - [Abs of Min])/([Abs of Max] - [Abs of Min]))× 100, where [Abs of Max] and [Abs of Min] are the mean Abs of DMSO control and 1 µM DMH-1, respectively. The Z’ factor, which is widely used as a measure of the assay quality of each plate, was calculated using the following equation: Z’ factor = 1 - 3 × ([SD of Max] + [SD of Min])/([Abs of Max] - [Abs of Min]) (SI Appendix, Fig.
The S/B (signal-to-background) ratio was calculated using the following equation: ([Abs of Max]/[Abs of Min]) (SI Appendix, Fig. S3B). […]

[5] = tested on: FOP-iMSCs; assay: 2D chondrogenic induction of FOP-iMSCs with activin A (GAG, Alcian blue); format: cell-based, human; conditions: activin A, 7 days
[6] = tested on: BMP-7-induced HO model mice (C57BL/6); assay: BMP-7-induced HO model mice
Text: as §1
(§3) For X- ray images, mice were anesthetized with isoflurane (5% for induction, 2-3% for maintenance, Abbvie), immobilized and X-rayed using µFX-1000 (Fujifilm) or DX-50 (Faxitron Bioptics). µCT images were scanned using X-ray CT systems (inspeXio SMX-100CT, Shimadzu) and analyzed with TRI/3D-BON software (Ratoc System Engineering) according to the manufacturer's instructions. Four weeks after injection, the injected sites were harvested, fixed with 4% paraformaldehyde for 24 h, embedded in paraffin, and sectioned and stained […]
as §2

[7] = tested on: NOD/SCID mice transplanted with FOP-iMSCs
Text: as §1
as §3, with “instructions.” for “instructions. Four weeks after injection, the injected sites were harvested, fixed with 4% paraformaldehyde for 24 h, embedded in paraffin, and sectioned and stained”
Activin-A-induced HO model transplanted with FOP-iMSCs. FOP- (right leg) and resFOP-iMSCs (left leg) (4 x 10^6 cells, respectively) were transplanted into the gastrocnemius muscle of NOD/ShiJic-scid Jcl (NOD/SCID) mice (8 weeks, male, CLEA Japan) with C3H -DoxOn-hINHBA (5 x 10^5 cells), which can continuously expose Activin-A to the transplanted iMSCs in vivo ( Hino et al., 2015) . In the Dox-induced group, 1 mg/mL Dox (Sigma-Aldrich) was administered via drinking water with 10 mg/mL sucrose (Nacalai Tesque) for two weeks after transplantation. Compounds were intraperitoneally administered once a day, five times a week. Eight weeks after transplantation, the transplanted cells were harvested , fixed with 4% paraformaldehyde for 24 h, embedded in paraffin, and sectioned and stained with HE, von Kossa, Safranin O, human specific anti-Vimentin antibody and Collagen I antibody as previously described (Hino et al., 2015; Umeda et al., 2012; […]

[8] = tested on: BMP signaling (BRE-Luc); assay: BRE-Luc reporter assay in FOP-iMSCs; format: cell-based, human; conditions: activin A and compounds for 16 hr
Method: (§4) FOP-iMSCs transiently transfected with BRE-Luc (A) or CAGA-Luc (B) with CMV-Renilla were stimulated with activin A and compounds for 16 hr (A) or 3 hr (B). […] One day after siRNA transfection, chondrogenic induction with activin A was initiated, and after 7 days the cells were harvested. […] FOP-iMSCs cultured with 10% FBS were treated with 100 nM rapamycin (Rapa) or TAK 165 (TAK) for 2 hr, and the cells were harvested. […] 1 μM TAK, 1 μM CP (CP-724714, another selective ERBB2 inhibitor), or 10 nM Rapa were applied in the experiments.

[9] = tested on: TGF-β signaling (CAGA-Luc); assay: CAGA-Luc reporter assay in FOP-iMSCs; format: cell-based, human; conditions: activin A and compounds for 3 hr
Method: as §4

[10] = tested on: mTOR signaling (p-S6); assay: p-S6 western blotting during chondrogenic induction of FOP-iMSCs with activin A; format: cell-based, human; conditions: 1 µM
Method: Western blotting. SDS- PAGE and blotting with whole-cell lysates were performed by standard procedures.
Protein bands were detected with ECL Prime Western Blotting Detection Reagent (GE Healthcare) and visualized using BIO-RAD Molecular Imager® Chemi-DocTM XRS+ with Image LabTM software (Bio-Rad).
All data (relative intensity) were corrected by β-actin.
Antibodies for western blotting and immunostaining.
N ame Company Cat. No Concentration
Human Activin RIA/ALK-2 Antibody R&D Systems) AF637 1:100
Anti-human Vimentin antibody Abcam ab16700 1:40
Collagen I Antibody Novus NB600- 1:100
Anti-rabbit IgG, HRP-linked Antibody Cell Signaling #7074 1:10000 […]
2nd Goat anti-Rabbit IgG (H+L) Secondary Antibody, Invitrogen A-11008 1:100 antibody Alexa Fluor® 488 conjugate
Goat anti-Rabbit IgG (H+L) Secondary Antibody, Invitrogen A-21428 1:500

[11] = tested on: BMP type I receptors; parameters: method as in Lewis and Prywes, 2013; conditions: ref Lewis and Prywes, 2013; cited from earlier work

| Compound | p-S6 levels (direct mTOR inhibition) [1] | Bone Mineral Density (normal bone µCT) vs vehicle [2] | Bone volume (normal bone µCT, femur-tibia) vs vehicle [2] | Hypertrophic zone thickness of growth plate vs vehicle [2] | Proliferative zone thickness of growth plate vs vehicle [2] | Relative cell migration (wound healing assay) vs DMSO [3] | IC50 [4] [nM] | inhibition of glycosaminoglycan (GAG) production ([5]; 1 μM) | suppression of chondrogenic induction (GAG), dose dependence [5] | body weight change compared to vehicle group ([6]; i.p. for 2 weeks, n=5) | BMP-7-induced HO (heterotopic bone volume) ([6]; i.p. once daily 5 times a week for 2 weeks) | # of HO (> 20 mm3): number of mice harboring HO ([6]; i.p. once daily 5 times a week for 2 weeks, N = 5) | body weight change compared with vehicle group ([7]; 5 mg/kg i.p.) | hypertrophic chondrocytes and von Kossa- and COL1-positive bone regions ([7]; 5 mg/kg i.p.) | HO derived from FOP-iMSCs (heterotopic bone volume) ([7]; 5 mg/kg i.p. once daily, five times a week, 8 weeks after transplantation) | BRE-Luc (BMP-specific luciferase reporter) [8] | CAGA-Luc (TGF-β-responsive luciferase reporter) [9] | p-S6 levels from 2 hr after treatment [10] | inhibition of BMP type I receptors [11] |
| --- | --- | --- | --- | --- | --- | --- | --- | --- | --- | --- | --- | --- | --- | --- | --- | --- | --- | --- | --- |
| CO[C@H]1C[C@@H]2CC[C@@H](C)[C@@](O)(O2)C(=O)C(=O)N2CCCC[C@H]2C(=O)O[C@H]([C@H](C)C[C@@H]2CC[C@@H](O)[C@H](OC)C2)CC(=O)[C@H](C)/C=C(\C)[C@@H](O)[C@@H](OC)C(=O)[C@H](C)C[C@H](C)/C=C/C=C/C=C/1C [rapamycin] | decreased | n.s. | n.s. | n.s. | n.s. | n.s. |  |  |  |  |  |  |  |  |  |  |  |  |  |
| CN1CCN(CCOc2cc(OC3CCOCC3)c3c(Nc4c(Cl)ccc5c4OCO5)ncnc3c2)CC1 [AZD0530, saracatinib] |  |  |  |  |  |  | 4 | potent inhibition | dose-dependent | No significant differences | suppressed | 1/5 | No significant differences | fewer | significantly suppressed | inhibited | inhibited | significantly inhibited | inhibited |
